Source: ChEMBL document CHEMBL4507281, “Data for DCP probe BI-4394” (2021)

Legend:
[1] = target: Cyclin-dependent kinase 17 (Homo sapiens) (UniProt Q00537); settings: Compound concentration 100.0 nM
[2] = target: Phosphatidylinositol 5-phosphate 4-kinase type-2 beta (Homo sapiens) (UniProt P78356); settings: Compound concentration 100.0 nM
[3] = test system: ALK tyrosine kinase receptor (Homo sapiens), Q9UM73 [C1156Y]; settings: Compound concentration 100.0 nM
[4] = target: Atypical kinase COQ8B, mitochondrial (Homo sapiens) (UniProt Q96D53); settings: Compound concentration 100.0 nM
[5] = target: Serine/threonine-protein kinase SIK3 (Homo sapiens) (UniProt Q9Y2K2); settings: Compound concentration 100.0 nM
Chain of Serine/threonine-protein kinase SIK3 (Homo sapiens) (Q9Y2K2 whole entry, looked up): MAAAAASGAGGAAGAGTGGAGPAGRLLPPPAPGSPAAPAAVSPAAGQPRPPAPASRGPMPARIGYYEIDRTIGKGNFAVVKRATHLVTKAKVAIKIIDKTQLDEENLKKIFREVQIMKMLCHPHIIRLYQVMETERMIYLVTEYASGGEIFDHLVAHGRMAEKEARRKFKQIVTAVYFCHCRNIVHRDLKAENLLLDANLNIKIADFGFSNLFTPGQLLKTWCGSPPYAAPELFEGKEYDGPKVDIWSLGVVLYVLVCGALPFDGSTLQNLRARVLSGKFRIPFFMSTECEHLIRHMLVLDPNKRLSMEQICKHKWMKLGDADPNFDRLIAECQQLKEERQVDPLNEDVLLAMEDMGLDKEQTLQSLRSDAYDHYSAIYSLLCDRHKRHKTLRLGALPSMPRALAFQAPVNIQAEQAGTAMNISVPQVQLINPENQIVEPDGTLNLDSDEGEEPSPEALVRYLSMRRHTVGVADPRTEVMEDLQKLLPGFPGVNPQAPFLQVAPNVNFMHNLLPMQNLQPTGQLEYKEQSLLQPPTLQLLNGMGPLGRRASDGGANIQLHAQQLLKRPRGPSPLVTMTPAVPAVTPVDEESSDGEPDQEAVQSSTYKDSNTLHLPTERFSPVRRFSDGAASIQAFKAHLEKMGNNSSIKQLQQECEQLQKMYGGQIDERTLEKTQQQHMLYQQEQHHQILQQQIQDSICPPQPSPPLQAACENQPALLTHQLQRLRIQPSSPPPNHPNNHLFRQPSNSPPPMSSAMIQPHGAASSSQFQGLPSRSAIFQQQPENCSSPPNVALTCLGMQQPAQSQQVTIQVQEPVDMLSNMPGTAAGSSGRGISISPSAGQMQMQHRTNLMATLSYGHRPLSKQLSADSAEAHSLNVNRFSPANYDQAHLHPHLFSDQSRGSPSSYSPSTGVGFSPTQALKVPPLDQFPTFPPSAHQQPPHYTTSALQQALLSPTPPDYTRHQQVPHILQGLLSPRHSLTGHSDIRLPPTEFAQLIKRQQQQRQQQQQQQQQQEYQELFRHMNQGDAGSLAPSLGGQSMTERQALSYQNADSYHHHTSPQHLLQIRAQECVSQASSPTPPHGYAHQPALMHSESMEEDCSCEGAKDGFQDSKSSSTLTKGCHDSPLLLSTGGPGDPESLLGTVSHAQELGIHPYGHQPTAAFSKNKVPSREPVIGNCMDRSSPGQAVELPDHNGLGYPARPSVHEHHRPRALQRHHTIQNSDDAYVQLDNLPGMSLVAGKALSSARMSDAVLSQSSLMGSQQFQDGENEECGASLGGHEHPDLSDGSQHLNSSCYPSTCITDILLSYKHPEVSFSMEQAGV

[6] = target: Histamine H1 receptor (Homo sapiens) (UniProt P35367); settings: Compound concentration 10.0 uM
[7] = target: Serine/threonine-protein kinase NLK (Homo sapiens) (UniProt Q9UBE8); settings: Compound concentration 100.0 nM
[8] = target: Serine/threonine-protein kinase RIO2 (Homo sapiens) (UniProt Q9BVS4); settings: Compound concentration 100.0 nM
[9] = target: Casein kinase I isoform gamma-2 (Homo sapiens) (UniProt P78368); settings: Compound concentration 100.0 nM
Chain of Casein kinase I isoform gamma-2 (Homo sapiens) (P78368 whole entry, looked up, canonical isoform): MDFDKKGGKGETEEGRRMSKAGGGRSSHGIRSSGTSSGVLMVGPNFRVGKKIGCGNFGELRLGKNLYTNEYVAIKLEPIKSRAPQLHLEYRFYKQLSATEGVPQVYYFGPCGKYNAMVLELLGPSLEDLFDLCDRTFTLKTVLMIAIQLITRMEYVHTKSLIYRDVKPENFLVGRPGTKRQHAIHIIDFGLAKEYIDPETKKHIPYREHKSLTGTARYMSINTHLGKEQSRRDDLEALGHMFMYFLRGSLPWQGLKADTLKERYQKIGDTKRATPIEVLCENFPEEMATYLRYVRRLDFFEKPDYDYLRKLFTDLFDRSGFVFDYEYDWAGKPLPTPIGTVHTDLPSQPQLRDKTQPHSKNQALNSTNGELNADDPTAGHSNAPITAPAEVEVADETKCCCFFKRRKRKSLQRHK

[10] = target: Serine/threonine-protein kinase DCLK1 (Homo sapiens) (UniProt O15075); settings: Compound concentration 100.0 nM
[11] = target: 5-hydroxytryptamine receptor 5A (Homo sapiens) (UniProt P47898); settings: Compound concentration 10.0 uM
Chain of 5-hydroxytryptamine receptor 5A (Homo sapiens) (P47898 whole entry): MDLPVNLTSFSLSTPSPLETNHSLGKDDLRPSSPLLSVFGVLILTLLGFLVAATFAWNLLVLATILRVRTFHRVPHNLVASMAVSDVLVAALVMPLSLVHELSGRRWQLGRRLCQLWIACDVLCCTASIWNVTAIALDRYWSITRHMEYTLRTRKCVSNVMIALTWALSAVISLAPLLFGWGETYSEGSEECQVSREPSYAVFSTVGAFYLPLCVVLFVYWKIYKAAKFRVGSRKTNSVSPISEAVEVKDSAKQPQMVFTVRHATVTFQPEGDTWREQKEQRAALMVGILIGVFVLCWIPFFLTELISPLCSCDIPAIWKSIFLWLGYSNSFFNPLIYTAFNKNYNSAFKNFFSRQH

[12] = target: Mitogen-activated protein kinase 15 (Homo sapiens) (UniProt Q8TD08); settings: Compound concentration 100.0 nM
[13] = target: Serine/threonine-protein kinase VRK2 (Homo sapiens) (UniProt Q86Y07); settings: Compound concentration 100.0 nM
[14] = target: Transient receptor potential cation channel subfamily M member 6 (Homo sapiens) (UniProt Q9BX84); settings: Compound concentration 100.0 nM
[15] = target: Protein kinase C iota type (Homo sapiens) (UniProt P41743); settings: Compound concentration 100.0 nM
Chain of Protein kinase C iota type (Homo sapiens) (P41743 whole entry): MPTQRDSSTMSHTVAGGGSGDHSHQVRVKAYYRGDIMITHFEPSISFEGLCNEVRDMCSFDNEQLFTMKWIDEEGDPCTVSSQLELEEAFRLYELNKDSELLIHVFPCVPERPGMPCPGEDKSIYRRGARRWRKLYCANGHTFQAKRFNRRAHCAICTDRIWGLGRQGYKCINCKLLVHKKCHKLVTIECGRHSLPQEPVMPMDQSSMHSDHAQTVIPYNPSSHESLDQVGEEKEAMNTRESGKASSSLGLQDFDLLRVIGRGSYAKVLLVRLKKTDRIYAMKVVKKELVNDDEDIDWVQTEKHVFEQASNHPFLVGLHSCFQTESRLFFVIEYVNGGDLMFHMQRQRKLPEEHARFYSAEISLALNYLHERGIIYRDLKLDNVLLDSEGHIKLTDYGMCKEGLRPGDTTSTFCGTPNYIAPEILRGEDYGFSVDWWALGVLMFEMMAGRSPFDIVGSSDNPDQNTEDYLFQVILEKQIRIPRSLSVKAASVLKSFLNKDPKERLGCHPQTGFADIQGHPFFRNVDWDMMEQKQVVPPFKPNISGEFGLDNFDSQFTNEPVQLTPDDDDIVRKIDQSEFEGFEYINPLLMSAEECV

[16] = target: Death-associated protein kinase 1 (Homo sapiens) (UniProt P53355); settings: Compound concentration 100.0 nM
[17] = target: Calcium-dependent protein kinase 1 (Plasmodium falciparum) (UniProt P62344); settings: Compound concentration 100.0 nM
[18] = target: Serine/threonine-protein kinase Nek4 (Homo sapiens) (UniProt P51957); settings: Compound concentration 100.0 nM
[19] = target: Proto-oncogene tyrosine-protein kinase ROS (Homo sapiens) (UniProt P08922); settings: Compound concentration 100.0 nM
[20] = target: Glycogen synthase kinase-3 beta (Homo sapiens) (UniProt P49841); settings: Compound concentration 100.0 nM
[21] = target: Serine/threonine-protein kinase/endoribonuclease IRE1 (Homo sapiens) (UniProt O75460); settings: Compound concentration 100.0 nM
[22] = target: Dual specificity protein kinase TTK (Homo sapiens) (UniProt P33981); settings: Compound concentration 100.0 nM
[23] = target: Phosphatidylinositol 4-phosphate 3-kinase C2 domain-containing subunit beta (Homo sapiens) (UniProt O00750); settings: Compound concentration 100.0 nM
[24] = target: Mitogen-activated protein kinase kinase kinase 15 (Homo sapiens) (UniProt Q6ZN16); settings: Compound concentration 100.0 nM
Chain of Mitogen-activated protein kinase kinase kinase 15 (Homo sapiens) (Q6ZN16 whole entry, canonical isoform): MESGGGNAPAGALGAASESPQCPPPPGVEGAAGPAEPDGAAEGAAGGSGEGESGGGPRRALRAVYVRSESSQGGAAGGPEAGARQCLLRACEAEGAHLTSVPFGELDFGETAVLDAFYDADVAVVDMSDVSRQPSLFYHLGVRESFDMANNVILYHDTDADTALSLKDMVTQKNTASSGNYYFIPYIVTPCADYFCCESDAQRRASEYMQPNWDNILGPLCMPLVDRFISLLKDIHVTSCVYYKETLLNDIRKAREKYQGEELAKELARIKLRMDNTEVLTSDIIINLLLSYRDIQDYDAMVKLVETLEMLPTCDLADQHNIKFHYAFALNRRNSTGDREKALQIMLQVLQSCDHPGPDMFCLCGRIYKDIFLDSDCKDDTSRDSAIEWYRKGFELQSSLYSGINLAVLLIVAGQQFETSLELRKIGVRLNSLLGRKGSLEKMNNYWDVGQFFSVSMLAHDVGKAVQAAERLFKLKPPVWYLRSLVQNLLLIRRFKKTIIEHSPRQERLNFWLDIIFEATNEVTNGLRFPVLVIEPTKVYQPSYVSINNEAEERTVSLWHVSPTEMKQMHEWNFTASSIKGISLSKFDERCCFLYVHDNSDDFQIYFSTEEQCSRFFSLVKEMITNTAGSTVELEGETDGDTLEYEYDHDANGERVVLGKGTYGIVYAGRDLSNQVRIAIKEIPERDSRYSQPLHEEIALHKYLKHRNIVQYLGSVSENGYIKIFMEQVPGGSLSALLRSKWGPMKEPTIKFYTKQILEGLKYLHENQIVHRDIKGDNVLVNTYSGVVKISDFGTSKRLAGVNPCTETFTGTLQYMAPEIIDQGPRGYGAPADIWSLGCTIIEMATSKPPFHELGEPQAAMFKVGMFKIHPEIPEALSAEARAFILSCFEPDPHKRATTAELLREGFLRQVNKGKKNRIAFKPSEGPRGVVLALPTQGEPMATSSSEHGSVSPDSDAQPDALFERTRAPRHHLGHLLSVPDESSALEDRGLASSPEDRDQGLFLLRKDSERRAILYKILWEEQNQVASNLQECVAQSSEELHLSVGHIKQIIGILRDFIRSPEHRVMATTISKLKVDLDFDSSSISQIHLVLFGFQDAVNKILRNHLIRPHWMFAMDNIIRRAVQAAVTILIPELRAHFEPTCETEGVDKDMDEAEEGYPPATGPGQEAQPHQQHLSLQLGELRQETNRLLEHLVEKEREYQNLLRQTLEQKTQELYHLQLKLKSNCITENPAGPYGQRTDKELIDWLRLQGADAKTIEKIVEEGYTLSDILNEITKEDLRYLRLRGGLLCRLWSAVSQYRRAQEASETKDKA

[25] = target: Phosphatidylinositol 4,5-bisphosphate 3-kinase catalytic subunit delta isoform (Homo sapiens) (UniProt O00329); settings: Compound concentration 100.0 nM
Chain of Phosphatidylinositol 4,5-bisphosphate 3-kinase catalytic subunit delta isoform (Homo sapiens) (O00329 whole entry, canonical isoform): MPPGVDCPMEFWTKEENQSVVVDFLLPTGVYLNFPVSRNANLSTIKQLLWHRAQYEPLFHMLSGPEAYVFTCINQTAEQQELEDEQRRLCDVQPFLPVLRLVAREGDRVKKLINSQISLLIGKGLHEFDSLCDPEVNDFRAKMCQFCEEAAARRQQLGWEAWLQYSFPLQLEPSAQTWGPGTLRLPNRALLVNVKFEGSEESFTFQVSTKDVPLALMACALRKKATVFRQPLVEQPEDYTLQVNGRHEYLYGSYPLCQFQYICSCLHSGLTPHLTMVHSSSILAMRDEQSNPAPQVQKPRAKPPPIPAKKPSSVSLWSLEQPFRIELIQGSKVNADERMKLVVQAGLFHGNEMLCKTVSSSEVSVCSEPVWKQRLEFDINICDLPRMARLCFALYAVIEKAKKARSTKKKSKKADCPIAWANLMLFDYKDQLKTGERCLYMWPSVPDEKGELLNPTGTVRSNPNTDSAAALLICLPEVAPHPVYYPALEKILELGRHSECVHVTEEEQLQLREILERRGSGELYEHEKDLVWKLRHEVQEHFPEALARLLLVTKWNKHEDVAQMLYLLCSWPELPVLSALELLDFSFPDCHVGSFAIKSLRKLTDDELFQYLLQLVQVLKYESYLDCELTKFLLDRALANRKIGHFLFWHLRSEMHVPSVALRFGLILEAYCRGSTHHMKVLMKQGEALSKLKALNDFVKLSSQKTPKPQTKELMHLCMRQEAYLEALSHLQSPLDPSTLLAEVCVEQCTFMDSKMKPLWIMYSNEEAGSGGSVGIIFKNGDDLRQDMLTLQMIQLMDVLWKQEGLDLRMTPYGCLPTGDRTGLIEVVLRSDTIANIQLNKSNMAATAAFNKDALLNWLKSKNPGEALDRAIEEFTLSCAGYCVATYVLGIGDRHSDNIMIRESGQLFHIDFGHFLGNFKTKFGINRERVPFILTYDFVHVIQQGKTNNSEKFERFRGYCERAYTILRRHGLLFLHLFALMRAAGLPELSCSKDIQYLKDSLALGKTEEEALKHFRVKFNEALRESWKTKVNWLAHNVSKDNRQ

[26] = target: Rho-associated protein kinase 2 (Homo sapiens) (UniProt O75116); settings: Compound concentration 100.0 nM
[27] = target: Dual specificity protein kinase CLK1 (Homo sapiens) (UniProt P49759); settings: Compound concentration 100.0 nM
[28] = target: Muscarinic acetylcholine receptor M3 (Homo sapiens) (UniProt P20309); settings: Compound concentration 10.0 uM
[29] = test system: Proto-oncogene tyrosine-protein kinase receptor Ret (Homo sapiens), P07949 [V804L]; settings: Compound concentration 100.0 nM
[30] = target: Alpha-2C adrenergic receptor (Homo sapiens) (UniProt P18825); settings: Compound concentration 10.0 uM
[31] = target: Mu-type opioid receptor (Homo sapiens) (UniProt P35372); settings: Compound concentration 10.0 uM
[32] = target: Dual specificity mitogen-activated protein kinase kinase 3 (Homo sapiens) (UniProt P46734); settings: Compound concentration 100.0 nM
[33] = target: 5-hydroxytryptamine receptor 2A (Homo sapiens) (UniProt P28223); settings: Compound concentration 10.0 uM
[34] = target: Receptor-type tyrosine-protein kinase FLT3 (Homo sapiens) (UniProt P36888); settings: Compound concentration 100.0 nM
[35] = target: LIM domain kinase 2 (Homo sapiens) (UniProt P53671); settings: Compound concentration 100.0 nM
[36] = target: NUAK family SNF1-like kinase 1 (Homo sapiens) (UniProt O60285); settings: Compound concentration 100.0 nM
[37] = target: Serine/threonine-protein kinase Sgk1 (Homo sapiens) (UniProt O00141); settings: Compound concentration 100.0 nM
[38] = target: Serine/threonine-protein kinase 24 (Homo sapiens) (UniProt Q9Y6E0); settings: Compound concentration 100.0 nM
[39] = test system: Tyrosine-protein kinase ABL1 (Homo sapiens), P00519 [T315I]; settings: Compound concentration 100.0 nM
[40] = target: NUAK family SNF1-like kinase 2 (Homo sapiens) (UniProt Q9H093); settings: Compound concentration 100.0 nM
[41] = target: Beta-adrenergic receptor kinase 1 (Homo sapiens) (UniProt P25098); settings: Compound concentration 100.0 nM
[42] = target: Tyrosine-protein kinase Fer (Homo sapiens) (UniProt P16591); settings: Compound concentration 100.0 nM
[43] = target: Serine/threonine-protein kinase PAK 1 (Homo sapiens) (UniProt Q13153); settings: Compound concentration 100.0 nM

CCOC(=O)c1cc2cc(-c3cc(C(=O)NCc4ccc(C(=O)O)cc4)nn3C)ccc2[nH]1 [BI 4394]
residual activity [1]: 100%
residual activity [2]: 100%
residual activity [3]: 82%
residual activity [4]: 100%
residual activity [5]: 100%
inhibition [6]: 9.64%
residual activity [7]: 86%
residual activity [8]: 100%
residual activity [9]: 79%
residual activity [10]: 86%
inhibition [11]: 14.8%
residual activity [12]: 100%
residual activity [13]: 98%
residual activity [14]: 95%
residual activity [15]: 87%
residual activity [16]: 84%
residual activity [17]: 100%
residual activity [18]: 81%
residual activity [19]: 97%
residual activity [20]: 95%
residual activity [21]: 90%
residual activity [22]: 93%
residual activity [23]: 93%
residual activity [24]: 100%
residual activity [25]: 65%
residual activity [26]: 85%
residual activity [27]: 100%
inhibition [28]: 4.89%
residual activity [29]: 99%
inhibition [30]: -7.04%
inhibition [31]: 0.37%
residual activity [32]: 100%
inhibition [33]: 19.1%
residual activity [34]: 98%
residual activity [35]: 96%
residual activity [36]: 100%
residual activity [37]: 100%
residual activity [38]: 92%
residual activity [39]: 92%
residual activity [40]: 85%
residual activity [41]: 100%
residual activity [42]: 100%
residual activity [43]: 92%

Cn1nc(C(=O)NCc2ccc(C(=O)O)cc2)cc1-c1ccc2[nH]ccc2c1 [BI 4395]
residual activity [1]: 77%
residual activity [2]: 93%
residual activity [3]: 65%
residual activity [4]: 100%
residual activity [5]: 94%
inhibition [6]: 8.74%
residual activity [7]: 100%
residual activity [8]: 100%
residual activity [9]: 90%
residual activity [10]: 88%
inhibition [11]: 0.78%
residual activity [12]: 98%
residual activity [13]: 91%
residual activity [14]: 79%
residual activity [15]: 80%
residual activity [16]: 97%
residual activity [17]: 73%
residual activity [18]: 84%
residual activity [19]: 74%
residual activity [20]: 78%
residual activity [21]: 83%
residual activity [22]: 88%
residual activity [23]: 78%
residual activity [24]: 91%
residual activity [25]: 97%
residual activity [26]: 82%
residual activity [27]: 80%
inhibition [28]: -0.66%
residual activity [29]: 45%
inhibition [30]: -7.92%
inhibition [31]: 2.9%
residual activity [32]: 93%
inhibition [33]: 23.6%
residual activity [34]: 95%
residual activity [35]: 100%
residual activity [36]: 70%
residual activity [37]: 88%
residual activity [38]: 97%
residual activity [39]: 71%
residual activity [40]: 87%
residual activity [41]: 98%
residual activity [42]: 93%
residual activity [43]: 86%
